Measured values as given in patent US20100160369A1, “S1P1 Agonists and Methods of Making And Using” (EXELIXIS, INC., priority 2008, published 2010).

Target: S1P1 (Homo sapiens, UniProt P21453)
Assay: CNG cAMP Assay (Assay 1)
Format: cell-based
Set-up: host or cells: HEK293 cells expressing the CNG channel
Conditions: footnote 1: Relative EC50 was measured, read-out: Assay 1 Relative EC50
Method: Frozen HEK293 cells expressing the CNG channel and S1P1 (BD Biosciences, San Jose, Calif.) were thawed and plated into the wells of a black, clear bottom, 384-well CellBind plate (Corning, Corning, N.Y.) at 14,000 cells per well. HEK293 cells expressing the CNG channel and CB1 (BD Biosciences) were cultured and plated under the same conditions. The cells were incubated for 16 h at 37° C. in complete DMEM medium (Invitrogen Carlsbad, Calif.) containing 10% FBS (HyClone Logan, Utah), 250 μg/mL geneticin (Invitrogen), and 1 μg/mL puromycin (Sigma-Aldrich, St. Louis, Mo.). A membrane potential dye (BD Biosciences) was added and the plates were incubated for 2-2.5 h at room temperature.
Test compounds were tested at maximum concentrations of 10 μM. Compounds were diluted in DMSO (10 concentration points, 3-fold each) and added to the assay plate at final DMSO concentrations of 1.8%. For each compound, there were duplicate assay plates and each assay plate had duplicate wells per concentration point. Test compounds were added to the cells in a DPBS solution containing 25 μM Ro 20-1724 (Sigma-Aldrich), 500 nM of the A2b receptor agonist NECA (Sigma-Aldrich) and 10 nM (EC95) of S1P (Avanti Alabaster, Ala.) and incubated for 90 min. The assay plate was read before compound addition (T0) and after the 90 min incubation (T90) using an EnVision plate reader (PerkinElmer, Waltham, Mass.) at an excitation wavelength of 350 nm and an emission wavelength of 590 nm. The T90/T0 ratio was determined for each concentration of the test compounds. The percent agonist activity was determined as [(test compound−DMSO alone control)/(NECA alone control−DMSO alone control)*100]. The percent activities were plotted against compound concentration to determine EC50 using XLFit (IDBS, Alameda, Calif.). The control used for calculating rEC50 in the S1P1 CNG agonist assay was DMSO.
Assay 1 is the CNG cAMP Assay as described in Biological Example 1. Assay 2a and 2b are the Tango™ β-arrestin Recruitment Assay in HEK293 and U2OS cells, respectively, as described in Biological Example 2. Assay 3a is the hS1P1R GTPγS Binding Assay as described in Biological Example 3. Assay 3b is the GTP-Eu Binding Assay as described in Biological Example 3. EC50's were measured unless otherwise noted. […] In the table, “nt” means the Compound was not tested and “no” means the compound was tested but had no measurable activity under the assay conditions employed.

Sequence of S1P1 (P21453 whole entry): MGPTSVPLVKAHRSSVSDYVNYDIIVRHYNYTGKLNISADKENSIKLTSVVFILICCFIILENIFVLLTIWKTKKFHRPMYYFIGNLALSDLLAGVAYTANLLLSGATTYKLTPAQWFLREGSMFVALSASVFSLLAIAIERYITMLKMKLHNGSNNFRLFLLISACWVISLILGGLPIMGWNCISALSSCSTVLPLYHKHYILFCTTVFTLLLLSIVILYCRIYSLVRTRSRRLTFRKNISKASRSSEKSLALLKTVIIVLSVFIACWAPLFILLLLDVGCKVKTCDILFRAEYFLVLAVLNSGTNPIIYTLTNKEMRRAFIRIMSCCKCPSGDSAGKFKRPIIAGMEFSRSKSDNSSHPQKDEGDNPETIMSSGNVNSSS

EC50	Compound
1 to 5 µM	O=C(O)Cc1ccc(-c2noc(-c3cn4cc(C(F)(F)F)cc(Cl)c4n3)n2)c(Cl)c1 [Example 133, (3-chloro-4-{5-[8-chloro-6-(trifluoromethyl)imidazo[1,2-a]pyridin-2-yl]-1,2,4-oxadiazol-3-yl}phenyl)acetic acid]
1 to 5 µM	CCNC(CC(=O)O)c1ccc(-c2noc(-c3cn4cc(C(F)(F)F)cc(Cl)c4n3)n2)c(Cl)c1 (centres unmarked) [Example 137, 3-(3-chloro-4-{5-[8-chloro-6-(trifluoromethyl)imidazo[1,2-a]pyridin-2-yl]-1,2,4-oxadiazol-3-yl}phenyl)-3-(ethylamino)propanoic acid]

Same assay, conditions: read-out: Assay 1 EC50

EC50	Compound
≤ 0.1 µM	CS(=O)(=O)Nc1ccc(-c2noc(-c3cn4cc(C(F)(F)F)cc(Cl)c4n3)n2)cc1 [Example 117, N-(4-{5-[8-chloro-6-(trifluoromethyl)imidazo[1,2-a]pyridin-2-yl]-1,2,4-oxadiazol-3-yl}phenyl)methanesulfonamide]
≤ 0.1 µM	Cc1cc(-c2noc(-c3cn4cc(C(F)(F)F)cc(Cl)c4n3)n2)ccc1NS(C)(=O)=O [Example 119, N-(4-{5-[8-chloro-6-(trifluoromethyl)imidazo[1,2-a]pyridin-2-yl]-1,2,4-oxadiazol-3-yl}-2-methylphenyl)methanesulfonamide]
0.5 to 1 µM	O=C(O)CNCc1ccc(-c2noc(-c3cn4cc(C(F)(F)F)cc(Cl)c4n3)n2)c(Cl)c1 [Example 120, N-[(3-chloro-4-{5-[8-chloro-6-(trifluoromethyl)imidazo[1,2-a]pyridin-2-yl]-1,2,4-oxadiazol-3-yl}phenyl)methyl]glycine]
0.5 to 1 µM	O=C(O)C1CN(Cc2cccc(-c3noc(-c4cn5cc(C(F)(F)F)cc(Cl)c5n4)n3)c2)C1 [Example 121, 1-[(3-{5-[8-chloro-6-(trifluoromethyl)imidazo[1,2-a]pyridin-2-yl]-1,2,4-oxadiazol-3-yl}phenyl)methyl]azetidine-3-carboxylic acid]
≤ 0.1 µM	CS(=O)(=O)Nc1ccc(-c2noc(-c3cn4cc(C(F)(F)F)cc(Cl)c4n3)n2)cc1Cl [Example 122, N-(2-chloro-4-{5-[8-chloro-6-(trifluoromethyl)imidazo[1,2-a]pyridin-2-yl]-1,2,4-oxadiazol-3-yl}phenyl)methanesulfonamide]
0.1 to 0.5 µM	O=C(O)CCNCc1ccc(-c2noc(-c3cn4cc(C(F)(F)F)cc(Cl)c4n3)n2)cc1 [Example 123, N-[(4-{5-[8-chloro-6-(trifluoromethyl)imidazo[1,2-a]pyridin-2-yl]-1,2,4-oxadiazol-3-yl}phenyl)methyl]-beta-alanine]
0.1 to 0.5 µM	CC(C)(O)c1ccc(-c2noc(-c3cn4cc(C(F)(F)F)cc(Cl)c4n3)n2)c(Cl)c1 [Example 126, 2-(3-chloro-4-{5-[8-chloro-6-(trifluoromethyl)imidazo[1,2-a]pyridin-2-yl]-1,2,4-oxadiazol-3-yl}phenyl)propan-2-ol]
0.1 to 0.5 µM	O=C(O)C1CN(Cc2ccc(-c3noc(-c4cn5cc(C(F)(F)F)cc(Cl)c5n4)n3)cc2Cl)C1 [Example 127, 1-[(2-chloro-4-{5-[8-chloro-6-(trifluoromethyl)imidazo[1,2-a]pyridin-2-yl]-1,2,4-oxadiazol-3-yl}phenyl)methyl]azetidine-3-carboxylic acid]
0.1 to 0.5 µM	C=CS(=O)(=O)Nc1ccc(-c2noc(-c3cn4cc(C(F)(F)F)cc(Cl)c4n3)n2)c(Cl)c1 [Example 128, N-(3-chloro-4-{5-[8-chloro-6-(trifluoromethyl)imidazo[1,2-a]pyridin-2-yl]-1,2,4-oxadiazol-3-yl}phenyl)ethenesulfonamide]
0.1 to 0.5 µM	CS(=O)(=O)Nc1ccc(-c2noc(-c3cn4cc(C(F)(F)F)cc(Cl)c4n3)n2)c(F)c1 [Example 129, N-(4-{5-[8-chloro-6-(trifluoromethyl)imidazo[1,2-a]pyridin-2-yl]-1,2,4-oxadiazol-3-yl}-3-fluorophenyl)methanesulfonamide]
0.5 to 1 µM	O=c1nc(-c2ccc(-c3noc(-c4cn5cc(C(F)(F)F)cc(Cl)c5n4)n3)c(Cl)c2)[nH]o1 [Example 134, 3-(3-chloro-4-{5-[8-chloro-6-(trifluoromethyl)imidazo[1,2-a]pyridin-2-yl]-1,2,4-oxadiazol-3-yl}phenyl)-1,2,4-oxadiazol-5(2H)-one]
0.1 to 0.5 µM	NC(=O)C(CC(=O)O)c1ccc(-c2noc(-c3cn4cc(C(F)(F)F)cc(Cl)c4n3)n2)c(Cl)c1 (centres unmarked) [Example 135, 4-amino-3-(3-chloro-4-{5-[8-chloro-6-(trifluoromethyl)imidazo[1,2-a]pyridin-2-yl]-1,2,4-oxadiazol-3-yl}phenyl)-4-oxobutanoic acid]
≤ 0.1 µM	CS(=O)(=O)CCc1ccc(-c2noc(-c3cn4cc(C(F)(F)F)cc(Cl)c4n3)n2)c(Cl)c1 [Example 140, 8-chloro-2-(3-{2-chloro-4-[2-(methylsulfonyl)ethyl]phenyl}-1,2,4-oxadiazol-5-yl)-6-(trifluoromethyl)imidazo[1,2-a]pyridine]
0.5 to 1 µM	FC(F)(F)c1cccc(-c2noc(-c3cn4cc(C(F)(F)F)cc(Cl)c4n3)n2)c1 [Example 143, 8-chloro-6-(trifluoromethyl)-2-{3-[3-(trifluoromethyl)phenyl]-1,2,4-oxadiazol-5-yl}imidazo[1,2-a]pyridine]
0.1 to 0.5 µM	OCCN1CCC(Oc2cc(Cl)c(-c3noc(-c4cn5cc(C(F)(F)F)cc(Cl)c5n4)n3)cc2F)C1 (centres unmarked) [Example 144, 2-{3-[(5-chloro-4-{5-[8-chloro-6-(trifluoromethyl)imidazo[1,2-a]pyridin-2-yl]-1,2,4-oxadiazol-3-yl}-2-fluorophenyl)oxy]pyrrolidin-1-yl}ethanol]
0.5 to 1 µM	Fc1ccc(-c2noc(-c3cn4cc(C(F)(F)F)cc(Cl)c4n3)n2)c(F)c1 [Example 146, 8-chloro-2-[3-(2,4-difluorophenyl)-1,2,4-oxadiazol-5-yl]-6-(trifluoromethyl)imidazo[1,2-a]pyridine]
0.1 to 0.5 µM	Fc1cccc(Cl)c1-c1noc(-c2cn3cc(C(F)(F)F)cc(Br)c3n2)n1 [Example 147, 8-bromo-2-[3-(2-chloro-6-fluorophenyl)-1,2,4-oxadiazol-5-yl]-6-(trifluoromethyl)imidazo[1,2-a]pyridine]
≤ 0.1 µM	CS(=O)(=O)c1cc(Cl)c2nc(-c3nc(-c4cc(F)c(CCC(=O)O)cc4Cl)no3)cn2c1 [Example 148, 3-(5-chloro-4-{5-[8-chloro-6-(methylsulfonyl)imidazo[1,2-a]pyridin-2-yl]-1,2,4-oxadiazol-3-yl}-2-fluorophenyl)propanoic acid]
0.1 to 0.5 µM	FC(F)(F)c1cc(Cl)c2nc(-c3nc(-c4ccc5[nH]ccc5c4)no3)cn2c1 [Example 151, 8-chloro-2-[3-(1H-indol-5-yl)-1,2,4-oxadiazol-5-yl]-6-(trifluoromethyl)imidazo[1,2-a]pyridine]

Same assay, conditions: relative EC50 was measured (footnote 1), read-out: Assay 1 Relative EC50

EC50	Compound
1 to 5 µM	CS(=O)(=O)Nc1ccc(-c2noc(-c3cn4cc(C#N)cc(Br)c4n3)n2)c(Cl)c1 [Example 114, N-{4-[5-(8-bromo-6-cyanoimidazo[1,2-a]pyridin-2-yl)-1,2,4-oxadiazol-3-yl]-3-chlorophenyl}methanesulfonamide]
1 to 5 µM	Cc1cc(Br)c2nc(-c3nc(-c4ccc(NS(C)(=O)=O)cc4Cl)no3)cn2c1 [Example 125, N-{4-[5-(8-bromo-6-methylimidazo[1,2-a]pyridin-2-yl)-1,2,4-oxadiazol-3-yl]-3-chlorophenyl}methanesulfonamide]
